Experimental data reported in patent US20250296959A1, “B7-H3 TARGETING PEPTIDES AND CONSTRUCTS THEREOF” (Mariana Oncology Inc., priority 2024, published 2025).
pKd: −log10 of the molar value. Starred links: 1 amine or outer side, 2 acyl side, 3 side chain; linkers in the order of their positions; H or OH if unused. Positions of bridges follow the written chain, without caps; N, C: chain ends. Non-standard residues stand in square brackets, D forms with d. Residues, ends and D or L forms follow the SMILES beside them. *: point of attachment. Ala(piperidin-4-yl) = O=C([C@H](CC1CCN([*:3])CC1)N[*:1])[*:2]; DOTA = O=C(O)CN1CCN(CC(=O)O)CCN(CC(=O)*)CCN(CC(=O)O)CC1; Phe(4-COOH) = N[C@@H](Cc1ccc(C(=O)O)cc1)C(=O)O; Trp(5-F) = N[C@@H](Cc1c[nH]c2ccc(F)cc12)C(=O)O; Trp(7-aza) = N[C@@H](Cc1c[nH]c2ncccc12)C(=O)O; Tyr(3-F) = N[C@@H](Cc1ccc(O)c(F)c1)C(=O)O; 2Nal = N[C@@H](Cc1ccc2ccccc2c1)C(=O)O; Phe(2-F) = N[C@@H](Cc1ccccc1F)C(=O)O; Phe(2-Me) = Cc1ccccc1C[C@H](N)C(=O)O; Hyp = O=C(O)[C@@H]1C[C@@H](O)CN1; 4Pal = N[C@@H](Cc1ccncc1)C(=O)O; Chg = N[C@H](C(=O)O)C1CCCCC1; Tle = CC(C)(C)[C@H](N)C(=O)O; hLeu = CC(C)CC[C@H](N)C(=O)O

Biological target: T1, human 4lg B7-H3 (Homo sapiens, UniProt Q5ZPR3)
T1 sequence (Q5ZPR3 29-534): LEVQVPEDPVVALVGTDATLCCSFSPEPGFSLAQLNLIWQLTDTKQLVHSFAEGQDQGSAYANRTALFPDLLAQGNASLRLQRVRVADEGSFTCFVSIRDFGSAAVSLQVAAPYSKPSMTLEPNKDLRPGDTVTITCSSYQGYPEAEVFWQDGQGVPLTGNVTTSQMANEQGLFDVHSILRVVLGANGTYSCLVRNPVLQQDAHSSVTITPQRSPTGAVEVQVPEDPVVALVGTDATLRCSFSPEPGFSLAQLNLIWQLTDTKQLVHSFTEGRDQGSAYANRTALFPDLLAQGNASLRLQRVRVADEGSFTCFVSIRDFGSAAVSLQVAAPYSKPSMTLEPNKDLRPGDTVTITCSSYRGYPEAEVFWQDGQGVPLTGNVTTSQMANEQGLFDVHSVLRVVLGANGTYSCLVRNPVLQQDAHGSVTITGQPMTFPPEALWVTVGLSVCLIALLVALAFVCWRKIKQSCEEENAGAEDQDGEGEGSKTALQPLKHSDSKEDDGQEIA
Assay: Affinity determination by surface plasmon resonance (SPR) to 4Ig B7-H3
Conditions: SPR KD—25° C., 4Ig B7-H3; 25° C. flow cell temperature

SMILES | pKd
CC(=O)N[C@@H](CCC(C)C)C(=O)N[C@@H](Cc1ccc(O)cc1)C(=O)N[C@H]1CSSC[C@@H](C(=O)N[C@@H](Cc2c[nH]c3ccccc23)C(=O)N[C@@H](Cc2ccccc2)C(=O)N[C@H](C(=O)N[C@H](CCCCNC(=O)CN2CCN(CC(=O)O)CCN(CC(=O)O)CCN(CC(=O)O)CC2)C(N)=O)[C@@H](C)O)NC(=O)[C@H](Cc2ccc(O)cc2)NC(=O)[C@H](C(C)C)NC(=O)[C@H](CC(=O)O)NC(=O)[C@H](Cc2ccc(O)cc2)NC(=O)[C@H](CC2CCNCC2)NC(=O)CNC(=O)[C@H](C(C)C)NC1=O [compound 154, Ac-hLeu-Y-C-V-G-PipAla-Y-D-V-Y-C-W-F-Thr-dLys(DOTA)-CONH2] (Ac-[hLeu]YCVG[Ala(piperidin-4-yl)]YDVYCWFT[dK](DOTA)-NH2; disulfide 3-11) | > 9.00
CC(=O)N[C@@H](CCC(C)C)C(=O)N[C@@H](Cc1ccc(O)cc1)C(=O)N[C@H]1CSSC[C@@H](C(=O)N[C@@H](Cc2c[nH]c3ncccc23)C(=O)N[C@@H](Cc2ccccc2)C(=O)N[C@H](C(=O)N[C@H](CCCCNC(=O)CN2CCN(CC(=O)O)CCN(CC(=O)O)CCN(CC(=O)O)CC2)C(N)=O)[C@@H](C)O)NC(=O)[C@H](Cc2ccc(O)cc2)NC(=O)[C@H](C(C)C)NC(=O)[C@H](CC(=O)O)NC(=O)[C@H](Cc2ccc(O)cc2)NC(=O)[C@H](CCCCN)NC(=O)CNC(=O)[C@H](C(C)C)NC1=O [compound 156, Ac-hLeu-Y-C-V-G-K-Y-D-V-Y-C-7NW-F-Thr-dLys(DOTA)-CONH2] (Ac-[hLeu]YCVGKYDVYC[Trp(7-aza)]FT[dK](DOTA)-NH2; disulfide 3-11) | 7.00 to 8.00
CC(=O)N[C@@H](CCC(C)C)C(=O)N[C@@H](Cc1ccc(O)cc1)C(=O)N[C@H]1CSSC[C@@H](C(=O)N[C@@H](Cc2ccc3ccccc3c2)C(=O)N[C@@H](Cc2ccccc2)C(=O)N[C@H](C(=O)N[C@H](CCCCNC(=O)CN2CCN(CC(=O)O)CCN(CC(=O)O)CCN(CC(=O)O)CC2)C(=O)O)[C@@H](C)O)NC(=O)[C@H](Cc2ccc(O)cc2)NC(=O)[C@H](C(C)C)NC(=O)[C@H](CC(=O)O)NC(=O)[C@H](Cc2ccc(O)cc2)NC(=O)[C@H](CCCCN)NC(=O)CNC(=O)[C@H](C(C)C)NC1=O [compound 159, Ac-hLeu-Y-C-V-G-K-Y-D-V-Y-C-2Nal-F-Thr-dLys(DOTA)-CONH2] (Ac-[hLeu]YCVGKYDVYC[2Nal]FT[dK](DOTA)-OH; disulfide 3-11) | 7.00 to 8.00
CC(=O)N[C@@H](CCC(C)C)C(=O)N[C@@H](Cc1ccc(O)cc1)C(=O)N[C@H]1CSSC[C@@H](C(=O)N[C@@H](Cc2c[nH]c3ccc(F)cc23)C(=O)N[C@@H](Cc2ccccc2)C(=O)N2C[C@H](O)C[C@H]2C(=O)N[C@H](CCCCNC(=O)CN2CCN(CC(=O)O)CCN(CC(=O)O)CCN(CC(=O)O)CC2)C(N)=O)NC(=O)[C@H](Cc2ccc(O)cc2)NC(=O)[C@H](C(C)C)NC(=O)[C@H](CC(=O)O)NC(=O)[C@H](Cc2ccc(O)cc2)NC(=O)[C@H](CCCCN)NC(=O)CNC(=O)[C@H](C(C)C)NC1=O [compound 161, Ac-hLeu-Y-C-V-G-K-Y-D-V-Y-C-5FW-F-4OHPro-dLys(DOTA)-CONH2] (Ac-[hLeu]YCVGKYDVYC[Trp(5-F)]F[Hyp][dK](DOTA)-NH2; disulfide 3-11) | 8.00 to 9.00
CC(=O)N[C@@H](CCC(C)C)C(=O)N[C@@H](Cc1ccc(O)cc1)C(=O)N[C@H]1CSSC[C@@H](C(=O)N[C@@H](Cc2c[nH]c3ccc(F)cc23)C(=O)N[C@@H](Cc2ccccc2)C(=O)N[C@@H](C(=O)N[C@H](CCCCNC(=O)CN2CCN(CC(=O)O)CCN(CC(=O)O)CCN(CC(=O)O)CC2)C(N)=O)[C@H](C)O)NC(=O)[C@H](Cc2ccc(O)cc2)NC(=O)[C@H](C(C)C)NC(=O)[C@H](CC(=O)O)NC(=O)[C@H](Cc2ccc(O)cc2)NC(=O)[C@H](CCCCN)NC(=O)CNC(=O)[C@H](C(C)C)NC1=O [compound 163, Ac-hLeu-Y-C-V-G-K-Y-D-V-Y-C-5FW-F-dThr-dLys(DOTA)-CONH2] (Ac-[hLeu]YCVGKYDVYC[Trp(5-F)]F[dT][dK](DOTA)-NH2; disulfide 3-11) | 7.00 to 8.00
CC(=O)N[C@@H](CCC(C)C)C(=O)N[C@@H](Cc1ccc(O)cc1)C(=O)N[C@H]1CSSC[C@@H](C(=O)N[C@@H](Cc2c[nH]c3ccc(F)cc23)C(=O)N[C@@H](Cc2ccccc2F)C(=O)N[C@H](C(=O)N[C@H](CCCCNC(=O)CN2CCN(CC(=O)O)CCN(CC(=O)O)CCN(CC(=O)O)CC2)C(N)=O)[C@@H](C)O)NC(=O)[C@H](Cc2ccc(O)cc2)NC(=O)[C@H](C(C)C)NC(=O)[C@H](CC(=O)O)NC(=O)[C@H](Cc2ccc(O)cc2)NC(=O)[C@H](CCCCN)NC(=O)CNC(=O)[C@H](C(C)C)NC1=O [compound 164, Ac-hLeu-Y-C-V-G-K-Y-D-V-Y-C-5FW-2FPhe-Thr-dLys(DOTA)-CONH2] (Ac-[hLeu]YCVGKYDVYC[Trp(5-F)][Phe(2-F)]T[dK](DOTA)-NH2; disulfide 3-11) | > 9.00
CC(=O)N[C@@H](CCC(C)C)C(=O)N[C@@H](Cc1ccc(O)cc1)C(=O)N[C@H]1CSSC[C@@H](C(=O)N[C@@H](Cc2c[nH]c3ccc(F)cc23)C(=O)N[C@@H](Cc2ccccc2C)C(=O)N[C@H](C(=O)N[C@H](CCCCNC(=O)CN2CCN(CC(=O)O)CCN(CC(=O)O)CCN(CC(=O)O)CC2)C(N)=O)[C@@H](C)O)NC(=O)[C@H](Cc2ccc(O)cc2)NC(=O)[C@H](C(C)C)NC(=O)[C@H](CC(=O)O)NC(=O)[C@H](Cc2ccc(O)cc2)NC(=O)[C@H](CCCCN)NC(=O)CNC(=O)[C@H](C(C)C)NC1=O [compound 165, Ac-hLeu-Y-C-V-G-K-Y-D-V-Y-C-5FW-2MePhe-Thr-dLys(DOTA)-CONH2] (Ac-[hLeu]YCVGKYDVYC[Trp(5-F)][Phe(2-Me)]T[dK](DOTA)-NH2; disulfide 3-11) | 8.00 to 9.00
CC(=O)N[C@@H](CCC(C)C)C(=O)N[C@@H](Cc1ccc(O)cc1)C(=O)N[C@H]1CSSC[C@@H](C(=O)N[C@@H](Cc2c[nH]c3ccc(F)cc23)C(=O)N[C@@H](Cc2ccc(C(=O)O)cc2)C(=O)N[C@H](C(=O)N[C@H](CCCCNC(=O)CN2CCN(CC(=O)O)CCN(CC(=O)O)CCN(CC(=O)O)CC2)C(N)=O)[C@@H](C)O)NC(=O)[C@H](Cc2ccc(O)cc2)NC(=O)[C@H](C(C)C)NC(=O)[C@H](CC(=O)O)NC(=O)[C@H](Cc2ccc(O)cc2)NC(=O)[C@H](CCCCN)NC(=O)CNC(=O)[C@H](C(C)C)NC1=O [compound 166, Ac-hLeu-Y-C-V-G-K-Y-D-V-Y-C-5FW-4COOHPhe-Thr-dLys(DOTA)-CONH2] (Ac-[hLeu]YCVGKYDVYC[Trp(5-F)][Phe(4-COOH)]T[dK](DOTA)-NH2; disulfide 3-11) | 7.00 to 8.00

The remaining lines, values ahead:

pKd | SMILES
8.00 to 9.00 | CC(=O)N[C@@H](CCC(C)C)C(=O)N[C@@H](Cc1ccc(O)cc1)C(=O)N[C@H]1CSSC[C@@H](C(=O)N[C@@H](Cc2c[nH]c3ccccc23)C(=O)N[C@@H](Cc2ccccc2)C(=O)N[C@H](C(=O)N[C@H](CCCCNC(=O)CN2CCN(CC(=O)O)CCN(CC(=O)O)CCN(CC(=O)O)CC2)C(N)=O)[C@@H](C)O)NC(=O)[C@H](Cc2ccc(O)c(F)c2)NC(=O)[C@H](C(C)C)NC(=O)[C@H](CC(=O)O)NC(=O)[C@H](Cc2ccc(O)cc2)NC(=O)[C@H](CCCCN)NC(=O)CNC(=O)[C@H](C(C)C)NC1=O [compound 151, Ac-hLeu-Y-C-V-G-K-Y-D-V-3FY-C-W-F-Thr-dLys(DOTA)-CONH2] (Ac-[hLeu]YCVGKYDV[Tyr(3-F)]CWFT[dK](DOTA)-NH2; disulfide 3-11)
> 9.00 | CC(=O)N[C@@H](CCC(C)C)C(=O)N[C@@H](Cc1ccc(O)cc1)C(=O)N[C@H]1CSSC[C@@H](C(=O)N[C@@H](Cc2c[nH]c3ccccc23)C(=O)N[C@@H](Cc2ccccc2)C(=O)N[C@H](C(=O)N[C@H](CCCCNC(=O)CN2CCN(CC(=O)O)CCN(CC(=O)O)CCN(CC(=O)O)CC2)C(N)=O)[C@@H](C)O)NC(=O)[C@H](Cc2ccc(O)cc2)NC(=O)[C@H](C2CCCCC2)NC(=O)[C@H](CC(=O)O)NC(=O)[C@H](Cc2ccncc2)NC(=O)[C@H](CCCCN)NC(=O)CNC(=O)[C@H](C(C)(C)C)NC1=O [compound 152, Ac-hLeu-Y-C-Tbg-G-K-4PyA-D-ChG-Y-C-W-F-Thr-dLys(DOTA)-CONH2] (Ac-[hLeu]YC[Tle]GK[4Pal]D[Chg]YCWFT[dK](DOTA)-NH2; disulfide 3-11)
> 9.00 | CC(=O)N[C@@H](CCC(C)C)C(=O)N[C@@H](Cc1ccc(O)cc1)C(=O)N[C@H]1CSSC[C@@H](C(=O)N[C@@H](Cc2c[nH]c3ccccc23)C(=O)N[C@@H](Cc2ccccc2)C(=O)N[C@H](C(=O)N[C@H](CCCCNC(=O)CN2CCN(CC(=O)O)CCN(CC(=O)O)CCN(CC(=O)O)CC2)C(N)=O)[C@@H](C)O)NC(=O)[C@H](Cc2ccc(O)cc2)NC(=O)[C@H](C2CCCCC2)NC(=O)[C@H](CC(=O)O)NC(=O)[C@H](Cc2ccncc2)NC(=O)[C@H](CCCCN)NC(=O)CNC(=O)[C@H](C(C)C)NC1=O [compound 153, Ac-hLeu-Y-C-V-G-K-4PyA-D-ChG-Y-C-W-F-Thr-dLys(DOTA)-CONH2] (Ac-[hLeu]YCVGK[4Pal]D[Chg]YCWFT[dK](DOTA)-NH2; disulfide 3-11)
> 9.00 | CC(=O)N[C@@H](CCC(C)C)C(=O)N[C@@H](Cc1ccc(O)cc1)C(=O)N[C@H]1CSSC[C@@H](C(=O)N[C@@H](Cc2c[nH]c3ccccc23)C(=O)N[C@@H](Cc2ccccc2)C(=O)N[C@H](C(=O)N[C@H](CCCCNC(=O)CN2CCN(CC(=O)O)CCN(CC(=O)O)CCN(CC(=O)O)CC2)C(N)=O)[C@@H](C)O)NC(=O)[C@H](Cc2ccc(O)cc2)NC(=O)[C@H](C(C)C)NC(=O)[C@H](CC(=O)O)NC(=O)[C@H](Cc2ccncc2)NC(=O)[C@H](CCCCN)NC(=O)CNC(=O)[C@H](C(C)C)NC1=O [compound 155, Ac-hLeu-Y-C-V-G-K-4PyA-D-V-Y-C-W-F-Thr-dLys(DOTA)-CONH2] (Ac-[hLeu]YCVGK[4Pal]DVYCWFT[dK](DOTA)-NH2; disulfide 3-11)
